The source made the active and inactive calls.
Tests used:
[1] = Stimulation or blockade of Alpha adrenergic receptor on rat vas deferens up to a dose of 10e-4 M; format: tissue-based
[2] = target: Beta-1 adrenergic receptor (Cavia porcellus) (UniProt B0FL73); assay: Stimulation or blockade of Beta-1 adrenergic receptor on guinea pig atria up to a dose of 10e-4 M
[3] = target: Beta-2 adrenergic receptor (Canis lupus familiaris) (UniProt P54833); assay: Stimulation or blockade of Beta-2 adrenergic receptor on guinea pig trachea up to a dose of 10e-4 M; conditions: Cavia porcellus; target entry is the homologue from another species

Measured: Activity

Sequence of Beta-1 adrenergic receptor (Cavia porcellus) (B0FL73 1-467): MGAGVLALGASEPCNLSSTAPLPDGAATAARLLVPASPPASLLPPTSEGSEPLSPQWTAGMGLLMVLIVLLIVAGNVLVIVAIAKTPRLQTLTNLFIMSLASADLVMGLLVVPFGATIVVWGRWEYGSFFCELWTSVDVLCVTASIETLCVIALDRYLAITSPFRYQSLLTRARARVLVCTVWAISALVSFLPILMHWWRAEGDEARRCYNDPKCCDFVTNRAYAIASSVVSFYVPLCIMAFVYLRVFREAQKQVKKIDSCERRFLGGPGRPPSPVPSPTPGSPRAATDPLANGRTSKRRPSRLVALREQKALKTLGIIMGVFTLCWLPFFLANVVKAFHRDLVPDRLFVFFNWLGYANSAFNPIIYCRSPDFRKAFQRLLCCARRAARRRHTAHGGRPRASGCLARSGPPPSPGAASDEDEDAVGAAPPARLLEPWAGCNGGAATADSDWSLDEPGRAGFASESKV
Sequence of Beta-2 adrenergic receptor (Canis lupus familiaris) (P54833 whole entry, looked up): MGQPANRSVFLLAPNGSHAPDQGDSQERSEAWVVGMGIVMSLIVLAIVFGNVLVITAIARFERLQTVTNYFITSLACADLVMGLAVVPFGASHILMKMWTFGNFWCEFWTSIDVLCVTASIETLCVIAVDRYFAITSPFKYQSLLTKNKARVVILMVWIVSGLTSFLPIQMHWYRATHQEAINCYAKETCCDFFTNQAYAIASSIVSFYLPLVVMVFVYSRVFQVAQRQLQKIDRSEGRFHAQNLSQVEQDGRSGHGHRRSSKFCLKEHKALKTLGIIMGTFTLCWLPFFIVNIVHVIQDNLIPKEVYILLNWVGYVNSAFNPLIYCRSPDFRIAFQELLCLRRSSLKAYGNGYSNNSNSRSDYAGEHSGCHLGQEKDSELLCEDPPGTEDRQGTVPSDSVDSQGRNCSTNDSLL

CC(C)NC1C2CCC(C2)C1(O)c1ccc(O)c(O)c1 (stereo unspecified)
inactive: [1] | [2] | [3]

NC1C2CCC(C2)C1(O)c1ccc(O)c(O)c1 (stereo unspecified)
inactive: [1] | [2] | [3]
